Results taken from the NIST ThermoML archive (doi:10.1016/j.fluid.2013.09.026).

Experiment: cn = amount concentration of the nth substance listed, in mol/dm3
Conditions: 303 K, 101 kPa, Liquid; for viscosity: Capillary tube (Ostwald / Ubbelohde) method; for speed of sound: Linear variable-path acoustic interferometer; for mass density: Pycnometric method

CNc1ccccc1 [N-methylaniline] + C[S+](C)[O-]
Conditions	mass density [kg/m3]	speed of sound [m/s]	viscosity [mPa·s]
c1 = 0.002	1090.8	1471.6	1.713
c1 = 0.004	1090.4	1471.8	1.713
c1 = 0.006	1090	1472	1.723
c1 = 0.008	1089.6	1471.2	1.718
c1 = 0.01	1089.8	1471.7	1.724
c1 = 0.012	1090	1473.5	1.733
c1 = 0.014	1089.7	1472.5	1.723
c1 = 0.016	1089.8	1471.9	1.718
c1 = 0.018	1089.8	1473	1.718
c1 = 0.02	1090.1	1473.9	1.72

CN(C)c1ccccc1 [N,N-dimethylaniline] + C[S+](C)[O-]
Conditions	mass density [kg/m3]	speed of sound [m/s]	viscosity [mPa·s]
c1 = 0.002	1090.7	1471.9	1.734
c1 = 0.004	1090.4	1472.5	1.725
c1 = 0.006	1090.7	1471.9	1.721
c1 = 0.008	1090.6	1472.6	1.731
c1 = 0.01	1089.9	1471.8	1.747
c1 = 0.012	1089.6	1472.1	1.724
c1 = 0.014	1090.1	1472.3	1.73
c1 = 0.016	1089.8	1471.6	1.731
c1 = 0.018	1090.3	1472.2	1.733
c1 = 0.02	1090.2	1472	1.732

Cc1ccccc1N [2-methylaniline] + C[S+](C)[O-]
Conditions	mass density [kg/m3]	speed of sound [m/s]	viscosity [mPa·s]
c1 = 0.002	1090.8	1471.4	1.713
c1 = 0.004	1090.4	1471.8	1.713
c1 = 0.006	1090.5	1472	1.723
c1 = 0.008	1089.6	1471.2	1.718
c1 = 0.01	1089.5	1472.6	1.72
c1 = 0.012	1090	1473.5	1.723
c1 = 0.014	1089.7	1472.5	1.718
c1 = 0.016	1089.8	1471.9	1.724
c1 = 0.018	1089.4	1473	1.733
c1 = 0.02	1090.3	1473.9	1.723

Nc1ccccc1 [aniline] + C[S+](C)[O-]
Conditions	mass density [kg/m3]	speed of sound [m/s]	viscosity [mPa·s]
c1 = 0.002	1090.4	1471.6	1.789
c1 = 0.004	1090.6	1473.9	1.798
c1 = 0.006	1090.7	1473.4	1.79
c1 = 0.008	1090.2	1472.7	1.79
c1 = 0.01	1090.6	1474.1	1.806
c1 = 0.012	1090.4	1473.7	1.777
c1 = 0.014	1090.5	1472.7	1.802
c1 = 0.016	1090.3	1472.8	1.819
c1 = 0.018	1090.4	1473	1.79
c1 = 0.02	1090.6	1474	1.792

O=C1C(Cl)=C(Cl)C(=O)C(Cl)=C1Cl [2,3,5,6-tetrachloro-p-benzoquinone] + C[S+](C)[O-]
Conditions	mass density [kg/m3]	speed of sound [m/s]	viscosity [mPa·s]
c1 = 0.002	1091.4	1472.4	1.756
c1 = 0.004	1091.6	1472.6	1.757
c1 = 0.006	1091.9	1471.9	1.758
c1 = 0.008	1091.9	1471.3	1.773
c1 = 0.01	1092.1	1471.6	1.769
c1 = 0.012	1091.6	1470.3	1.767
c1 = 0.014	1091.4	1467.1	1.76
c1 = 0.016	1091.2	1468.3	1.756
c1 = 0.018	1091.7	1468.5	1.767
c1 = 0.02	1091.7	1468.7	1.769
